Measured values published in patent US8791132B2, “Compounds and methods for treatment of hypertension” (Medivation Technologies, Inc., priority 2011, dated 2014).
Read-outs that look alike come from different tables or passages of the source.

Assays:
[1] = molecular target: T1, human recombinant adrenergic α2B receptor (Homo sapiens, UniProt P18089); assay: Radioligand binding, adrenergic α2B ([3H]Rauwolscine); settings: for Ki: read-out: Ki α2B; for inhibition at 0.03 µM: read-out: Percentage inhibition of ligand binding, Adrenergic α2B (0.03 μM), compound at 0.03 μM; for Percentage inhibition of ligand binding, Adrenergic α2B (0.03 μM): compound at 0.03 μM; for Percentage inhibition of ligand binding, Adrenergic α2B: 0.03 μM compound; for Percentage inhibition of ligand binding, Adrenergic α2B (0.03 μM) / Percentage inhibition of ligand binding, Adrenergic α2B: 0.03 µM
T1 construct: expressed in transfected cells; host or cells: CHO-K1
T1 sequence (P18089 1-450): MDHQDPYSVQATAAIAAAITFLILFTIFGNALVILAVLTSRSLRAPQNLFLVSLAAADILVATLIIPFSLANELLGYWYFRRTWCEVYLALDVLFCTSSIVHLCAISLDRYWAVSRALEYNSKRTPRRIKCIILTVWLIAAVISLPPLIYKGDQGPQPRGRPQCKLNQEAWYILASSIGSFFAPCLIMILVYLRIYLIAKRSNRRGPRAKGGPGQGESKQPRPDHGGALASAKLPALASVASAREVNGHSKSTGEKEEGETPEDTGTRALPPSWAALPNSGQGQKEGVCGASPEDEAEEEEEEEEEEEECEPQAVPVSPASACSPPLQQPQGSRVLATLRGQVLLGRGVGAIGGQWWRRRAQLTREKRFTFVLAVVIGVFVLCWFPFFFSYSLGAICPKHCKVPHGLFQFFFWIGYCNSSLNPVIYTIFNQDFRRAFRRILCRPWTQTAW
Experimental: To evaluate in radioligand binding assays the activity of compounds of the invention, human recombinant adrenergic α2B receptor expressed in Chinese hamster ovary (CHO) K1 cells (Uhlen, S. et al, Eur. J. Pharmacol. 343(1):93, 1998) in a modified Tris-HCl buffer (50 mM Tris-HCl, pH 7.4, 12.5 mM MgCl2, 1 mM EDTA, 0.2% BSA) was used. Compounds of the invention were incubated with 2.5 nM [3H]Rauwolscine for 60 min at 25° C. Non-specific binding was estimated in the presence of 10 μM Prazosin. Receptor proteins were filtered and washed, the filters were then counted to determine [3H]Rauwolscine specifically bound. […] Compounds of the invention were tested in this biochemical assay and percent inhibition of specific binding was determined. Biochemical assay results are presented as the percent inhibition of specific binding in Table B1.

[2] = molecular target: T2, human recombinant adrenergic α2A receptor (Homo sapiens, UniProt P08913); assay: Radioligand binding, adrenergic α2A ([3H]MK-912); settings: for Percentage inhibition of ligand binding, Adrenergic α2A (0.1 μM): compound at 0.1 μM; for Percentage inhibition of ligand binding, Adrenergic α2A (0.1 μM) / Percentage inhibition of ligand binding, Adrenergic α2A: 0.1 µM
T2 construct: expressed in transfected cells; host or cells: insect Sf9 cells
T2 sequence (P08913 1-465): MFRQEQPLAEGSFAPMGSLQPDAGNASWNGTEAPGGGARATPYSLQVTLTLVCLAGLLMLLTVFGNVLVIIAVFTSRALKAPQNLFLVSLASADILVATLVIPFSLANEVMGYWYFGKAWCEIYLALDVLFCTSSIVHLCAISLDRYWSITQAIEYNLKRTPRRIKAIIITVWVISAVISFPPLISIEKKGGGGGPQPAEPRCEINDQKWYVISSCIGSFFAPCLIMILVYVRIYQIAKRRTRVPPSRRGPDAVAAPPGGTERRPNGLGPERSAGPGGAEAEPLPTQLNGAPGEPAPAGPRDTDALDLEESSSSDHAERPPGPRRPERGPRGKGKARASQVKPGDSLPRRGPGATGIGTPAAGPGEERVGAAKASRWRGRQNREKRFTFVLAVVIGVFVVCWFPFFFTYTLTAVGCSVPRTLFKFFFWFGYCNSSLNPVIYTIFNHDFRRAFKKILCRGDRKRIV
Experimental: To evaluate in radioligand binding assays the activity of compounds of the invention, human recombinant adrenergic α2A receptor expressed in insect Sf9 cells (Uhlen, S. et al, J. Pharmacol. Exp. Ther. 271:1558, 1994) in a modified Tris-HCl buffer (50 mM Tris-HCl, pH 7.4, 12.5 mM MgCl2, 2 mM EDTA) was used. Compounds of invention were incubated with 1 nM [^3H]MK-912 for 60 min at 25° C. MK912 is (2S-trans)-1,3,4,5′,6,6′,7,12b-octahydro-1′,3′-dimethyl-spiro[2H-benzofuro[2,3-a]quinolizine-2,4′(1′H)-pyrimidin]-2′(3′H)-one hydrochloride. Non-specific binding was estimated in the presence of 10 μM WB-4101 (2-(2,6-Dimethoxyphenoxyethyl)aminomethyl-1,4-benzodioxane hydrochloride). Receptor proteins were filtered and washed, the filters were then counted to determine [^3H]MK-912 specifically bound. […] Compounds of the invention were tested in this biochemical assay and percent inhibition of specific binding was determined. Biochemical assay results are presented as the percent inhibition of specific binding in Table B1.

[3] = [3H]Rauwolscine, repeat datapoints each shown
[4] = read-out: Percentage inhibition of ligand binding, Adrenergic α2A (0.1 μM), compound at 0.1 μM, [3H]MK-912, repeat datapoints each shown
[5] = read-out: Percentage inhibition of ligand binding, Adrenergic α2B (0.1 μM), compound at 0.1 μM, [3H]Rauwolscine, repeat datapoints each shown
[6] = [3H]MK-912, repeat datapoints each shown
[7] = 0.1 μM compound, read-out: Percentage inhibition of ligand binding, Adrenergic α2B

Cc1ccc2c(c1)c1c(n2CC(N=[N+]=[N-])c2ccncc2)CCN(C)C1 (racemic) [V-1, 5-(2-azido-2-(pyridin-4-yl)ethyl)-2,3,4,5-tetrahydro-2,8-dimethyl-1H-pyrido[4,3-b]indole]
Ki [1]: 0.51 nM | inhibition at 0.03 µM [1, 3]: 102% | inhibition at 0.1 µM [2, 4]: 35%

Cc1ccc2c(c1)c1c(n2C(C)C(O)c2ccncc2)CCN(C)C1 (single isomer, unassigned) [127a]
Ki [1]: 15.1 nM | inhibition at 0.03 µM [1, 3]: 43% | inhibition at 0.1 µM [1, 5]: 74%

Cc1cnc2c(c1)c1c(n2CC(O)c2ccc(F)cc2)CCN(C)C1 (single isomer, unassigned) [136b]
Percentage inhibition of ligand binding, Adrenergic α2B (0.03 μM) [1, 3]: 69% | Percentage inhibition of ligand binding, Adrenergic α2A (0.1 μM) [2, 6]: 21%

Cc1ccc2c(c1)c1c(n2CC(O)c2ccc(C#N)cc2)CCN(C)C1 (single isomer, unassigned) [142b]
Percentage inhibition of ligand binding, Adrenergic α2A (0.1 μM) [2, 6]: 63%

Cc1cnc2c(c1)c1c(n2CC(C)(O)c2ccc(C)nc2)CCN2CCCC12 (single isomer, unassigned) [148d]
Percentage inhibition of ligand binding, Adrenergic α2B (0.03 μM) [1, 3]: 11% | Percentage inhibition of ligand binding, Adrenergic α2A (0.1 μM) [2, 6]: −11%

Cc1ccc2c(c1)c1c(n2CC(c2ccncc2)N2CCCC2)CCN(C)C1 (single isomer, unassigned) [152a]
inhibition at 0.1 µM [2, 4]: 17%

Cc1ccc2c(c1)c1c(n2CC(N)c2ccncc2)CC2CCC1N2C (single isomer, unassigned) [155a]
Percentage inhibition of ligand binding, Adrenergic α2A (0.1 μM) [2, 6]: −1%

C/C(=C\n1c2c(c3cc(C)ccc31)C1CCCCN1CC2)c1ccc(F)cc1 (single isomer, unassigned) [199a]
Percentage inhibition of ligand binding, Adrenergic α2B (0.03 μM) [1, 3]: 94% | Percentage inhibition of ligand binding, Adrenergic α2A (0.1 μM) [2, 6]: 96%

C/C(=C\n1c2c(c3cc(C)ccc31)C1CCCCN1CC2)c1ccc(F)cc1 (single isomer, unassigned) [199b]
Percentage inhibition of ligand binding, Adrenergic α2B (0.03 μM) [1, 3]: 27% | Percentage inhibition of ligand binding, Adrenergic α2A (0.1 μM) [2, 6]: 61%

CN1CCc2c(n(CC(O)c3ccc(F)c(F)c3)c3ccc(Cl)cc23)CC1 (single isomer, unassigned) [339b]
Percentage inhibition of ligand binding, Adrenergic α2A ([2]; 0.1 μM compound): 64%

OCCN1CCc2c(c3cc(Cl)ccc3n2CC(O)c2cccnc2)C1 (single isomer, unassigned) [II-94a]
Percentage inhibition of ligand binding, Adrenergic α2B [1]: 8% | Percentage inhibition of ligand binding, Adrenergic α2A ([2]; 0.1 μM compound): 0%

Cc1cnc2c(c1)c1c(n2CC(O)c2ccc(C)nc2)CCN(C)C1 (single isomer, unassigned) [II-100a]
Percentage inhibition of ligand binding, Adrenergic α2B [1]: 12% | inhibition at 0.1 µM ([2]; 0.1 μM compound, read-out: Percentage inhibition of ligand binding, Adrenergic α2A): 7%

CC(O)(Cn1c2c(c3cc(Cl)ccc31)CN(C1CCC1)CC2)c1cccnc1 (single isomer, unassigned) [II-118a]
Percentage inhibition of ligand binding, Adrenergic α2B (0.03 μM) [1, 3]: 27% | inhibition at 0.1 µM [2, 4]: 3%

Cc1ccc2c(c1)c1c(n2CC(C)(O)c2cccnc2)CCN(C)C1C (single isomer, unassigned) [II-152a]
Percentage inhibition of ligand binding, Adrenergic α2B (0.03 μM) [1, 3]: 93%

C/C(=C\n1c2c(c3cc(C)ccc31)C1CCCN1CC2)c1ccc(C)nc1 (stereo not drawn) [193a, 10-methyl-7-(2-(6-methylpyridin-3-yl)prop-1-enyl)-2,3,5,6,7,11c-hexahydro-1H-indolizino[7,8-b]indole]
inhibition at 0.03 µM [1, 3]: 98%

Cc1ccc2c(c1)c1c(n2CCc2ccc(C(F)(F)F)nc2)C(C)(C)CN(C)C1 [II-40]
inhibition at 0.1 µM [1, 7]: 36%

C/C(=C\n1c2c(c3cc(C)ccc31)CN(C)CC2(C)C)c1ccc(C)nc1 [II-61]
inhibition at 0.1 µM [1, 7]: 47%

C/C(=C\n1c2c(c3cc(C)ccc31)CN(C)CC2(C)C)c1ccncc1 [II-70]
inhibition at 0.1 µM [1, 7]: 34%

C/C(=C\n1c2c(c3cc(C)ccc31)CN(C)CC2)c1cnccc1C [II-76, (E)-2,8-dimethyl-5-(2-(4-methylpyridin-3-yl)prop-1-en-1-yl)-2,3,4,5-tetrahydro-1H-pyrido[4,3-b]indole]
inhibition at 0.1 µM [1, 7]: 103%

OCCN1CCc2c(c3cc(Cl)ccc3n2CC(O)c2ccncc2)C1 (stereo not drawn) [II-93b]
Percentage inhibition of ligand binding, Adrenergic α2A ([2]; 0.1 μM compound): 4%

Cc1ccc2c(c1)c1c(n2C(C)C(O)c2ccncc2)CCN(C)C1 (stereo not drawn) [II-98b]
Percentage inhibition of ligand binding, Adrenergic α2B [1]: 5%

Cc1ccc(CCn2c3c(c4cccnc42)CN(C)CC3(C)C)cn1 [II-133]
inhibition at 0.1 µM [1, 5]: -5%

CN1Cc2c(n(CCc3ccc(C(F)(F)F)nc3)c3ncccc23)C(C)(C)C1 [II-215]
inhibition at 0.1 µM [1, 5]: -5%

FC(F)(F)c1ccc(CCn2c3c(c4cccnc42)CN2CCCC2C3)cn1 (stereo not drawn) [II-236]
inhibition at 0.1 µM [1, 5]: -4%

Cc1cnc2c(c1)c1c(n2CCc2ccc(C(F)(F)F)nc2)CCN2CCCC12 (stereo not drawn) [II-238]
inhibition at 0.1 µM [1, 5]: 98%

Cc1cnc2c(c1)c1c(n2CCc2ccc(C(F)(F)F)nc2)CC2CCCN2C1 (stereo not drawn) [II-239]
inhibition at 0.1 µM [1, 5]: 17%

FC(F)(F)c1ccc(CCn2c3c(c4cccnc42)C2CCCN2CC3)cn1 (stereo not drawn) [IV-2]
inhibition at 0.1 µM [1, 5]: 50%

Cc1ccc2c(c1)c1c(n2CCc2ccccc2F)CCN(C)C1 [compound 204]
inhibition at 0.1 µM [1, 5]: 107% | Ki [2]: 2.48 nM | inhibition at 0.1 µM [2, 4]: 87%

Cc1ccc2c(c1)c1c(n2CCC2CCCCC2)CCN(C)C1 [compound 205]
inhibition at 0.1 µM [1, 5]: 70% | inhibition at 0.1 µM [2, 4]: 69%

CN1CCc2c(c3cc(C(F)(F)F)ccc3n2CCc2ccccc2)C1 [compound 209]
inhibition at 0.1 µM [1, 5]: 84% | inhibition at 0.1 µM [2, 4]: 80%

Cc1ccc(CCn2c3c(c4cc(C(F)(F)F)ccc42)CN(C)CC3)cc1 [compound 210]
inhibition at 0.1 µM [1, 5]: 63% | inhibition at 0.1 µM [2, 4]: 88%

CN1CCc2c(c3cc(Cl)ccc3n2CCC2CCCCC2)C1 [compound 212]
inhibition at 0.1 µM [1, 5]: 64% | inhibition at 0.1 µM [2, 4]: 66%

CN1CCc2c(c3ccc(Cl)cc3n2CCc2ccccc2)C1 [compound 215]
inhibition at 0.1 µM [1, 5]: 102% | inhibition at 0.1 µM [2, 4]: 97%
